{"source": "paper PMC7591920", "about": "“A protein tertiary structure mimetic modulator of the Hippo signalling pathway” (Nature Communications, 2020)", "key": {"RKO cells [1]": {"system": "RKO cells", "assay": "Wound closure assay", "assay_type": "cell-based", "conditions": "c = 30 µM, 48 h treatment", "experimental": "Ca. 100,000 RKO cells were seeded per well in a transparent ImageLock 96-well plate (#4379, Essen Bioscience) and treated with the samples the next day. Wound Healing Assay was performed using the IncuCyte® ZOOM system and the WoundMaker™ device (both Essen Bioscience). The scratch was performed according to manufacturer’s protocol and images were acquired every 2 h. Image-based analysis of wound closure was conducted using the IncuCyte ZOOM 2016B software (Essen Bioscience). Confluency within the wound area was normalized to the confluency at the time of scratch preparation and plotted using GraphPad Prism 6."}, "[2]": {"system": "primary juvenile (P5–P6) rat cardiomyocytes", "assay": "Cell cycle activity assay (Ki67/αActinin) in juvenile rat cardiomyocytes", "assay_type": "cell-based", "experimental": "One day after seeding, the cells were treated with test compounds of interest. Treatments were applied with an ECHO 520 acoustic dispenser (Labcyte) and medium was added to the wells. Four days after treatment, the cells were fixed with 4% formaldehyde (Roth) and immunostained in 0.2% Triton-X100 (Roth) in PBS (Gibco) supplemented with 5% FBS. […] Samples were then imaged and analysed on an ImageXpress XL automated microscope (Molecular Devices). Data are depicted as means ± SEM."}, "RKO cells [3]": {"system": "RKO cells", "assay": "Sub-cellular (cytoplasmic, nuclear) peptide concentration in RKO cells by UPLC-MS", "conditions": "for Sub-cellular drug content, Cytoplasm, Measured concentration / Sub-cellular drug content, Cytoplasm, nMol / Sub-cellular drug content, Nuclear, Measured concentration / Sub-cellular drug content, Nuclear, nMol / Sub-cellular drug content, Cytoplasm, pMol.mg-1 / Sub-cellular drug content, Nuclear, pMol.mg-1: 25 µM compound, n = 2; for Sub-cellular drug content, Cytoplasm, pMol.mg-1 / Sub-cellular drug content, Nuclear, pMol.mg-1: per mg protein; for Cytoplasmic concentration of peptide: cytoplasmic fraction; for Nuclear concentration of peptide: nuclear fraction; for Cytoplasmic concentration, raw data / Nuclear concentration, raw data: sheet Figure 3c, 25 µM unlabelled peptide; for Intracellular concentration: mass spectrometry", "description": "(§1) Peptides were incubated in RKO cells (ATCC, #CRL-2577) as follows: Experiment 1: RKO cells were incubated in 25 µM compound for 90 min and 24 h. Experiment 2: RKO cells were incubated in 25 µM for 30 min or 72 h. Following peptide incubation, the cells were washed twice with PBS, trypsinized and pelleted. The pellets were lysed in RIPA buffer (Perkin Elmer) for total lysis, or CelLytic NuCLEAR Extraction Kit (SIGMA) for subcellular fractionation. Total protein quantification BCA (Pierce) was performed prior to MS analysis to normalize sample data. Total and fractionated cell lysates were analysed by quantitative UPLC-MS utilizing a Waters Xevo TQ-XS (WBA0259) and an Acquity UPLC system from Waters consisting of Sample Manager (M16UFL953M), Acquity PDA (F17UPD457A), Column Oven (E17CMP703G) and Binary Solvent Manager (E17BUR621G). […] Chromatograms of the samples were treated similarly, and by linear regression (1/x) an in-cell concentration was established in the re-suspended cell lysate using the Waters MassLynx TargetLynx^TM product."}, "RKO cells [4]": {"system": "RKO cells", "assay": "Total drug content in RKO cells by UPLC-MS", "conditions": "25 µM compound", "description": "as §1"}, "GST-hTEAD1": {"molecular_target": "T1, GST-hTEAD1 (Homo sapiens, UniProt P28347)", "T1 construct": "CDNA of hTEAD1(209–426) fused with an N-terminal GST tag; made in house; host or cells: Escherichia coli BL21 DE3 RIL(K+)", "T1 sequence (P28347 209-426)": "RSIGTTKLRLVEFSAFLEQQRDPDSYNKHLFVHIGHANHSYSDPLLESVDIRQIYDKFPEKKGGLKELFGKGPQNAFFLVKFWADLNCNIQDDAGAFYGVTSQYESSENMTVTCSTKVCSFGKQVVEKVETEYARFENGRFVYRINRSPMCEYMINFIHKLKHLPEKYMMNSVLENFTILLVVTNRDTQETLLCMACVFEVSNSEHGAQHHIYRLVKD", "assay": "SPR binding to immobilised GST-hTEAD1", "conditions": "GST-hTEAD1 amine-coupled on CM5, multi-cycle, steady-state fit 1:1 model, 10 mM HEPES 150 mM NaCl 0.05% Tween-20 pH 7.4, 0.3% DMSO, 20 °C, Fig. 1 values n = 1 replicate", "experimental": "Sensor chips Series S CM5 (Research grade) were obtained from GE Healthcare. Prior to use, the sensor chips were equilibrated at room temperature for 15 min to prevent water condensation on the detector side of the sensor chip surface. A running buffer was prepared composed of 10 mM HEPES, 150 mM NaCl, and 0.05% (w/v) Tween-20, pH 7.4, and the system was equilibrated at 20 °C using a flow rate of 30 µL min^−1 after docking of the sensor chip. Ligand binding experiments have been performed applying the concept of multi-cycle kinetics. A contact time of 45 s was selected, followed by a 6-min dissociation phase to allow for complete dissociation of the analyte prior to the next cycle. […] Typically, seven concentrations of the analytes have been examined applying a threefold dilution pattern with 30 µM as top concentration. For the analysis, five running buffer blanks were injected to equilibrate the instrument. […] The carboxyl-dextran surface was activated for 7 min with 0.05 M NHS and 0.2 M EDC, followed by an injection of the proteins in 10 mM MES pH 6.4 at a concentration of 30–50 µg mL^−1. […] This was followed by a deactivation of the residual esters by injecting a solution of 0.5 M ethanolamine pH 8.0 for 7 min before engaging in ligand binding experiments. Reference surfaces were prepared accordingly, omitting the injection of protein over the activated reference surface."}, "GST-hTEAD1 / biotin-VGL4": {"molecular_target": "T2, GST-hTEAD1 / biotin-VGL4 (Homo sapiens, UniProt P28347)", "T2 construct": "CDNA of hTEAD1(209–426) fused with an N-terminal GST tag; made in house; host or cells: Escherichia coli BL21 DE3 RIL(K+); bait peptide synthetic", "T2 sequence (P28347 209-426)": "as above", "assay": "Competition pull-down of GST-hTEAD1 with immobilised biotin-VGL4", "assay_type": "biochemical", "conditions": "GST-hTEAD1 1 µM, peptide 50 and 200 µM, biotin-VGL4 on streptavidin beads, 2.5 h, SDS-PAGE, n = 1", "experimental": "Beads were then extensively washed with the incubation buffer followed by protein elution after boiling the beads at 95 °C for 10 min in 25 µL of SDS loading buffer. SDS PAGE was performed using standard methods and the gel was visualized after Coomassie staining with a Li-COR Fc Imager."}, "mTEAD4": {"molecular_target": "T3, mTEAD4 (Mus musculus, UniProt Q62296)", "T3 construct": "Mouse TEAD4(210–427) cDNA fused with a 6x His-tag and a 3C protease cleavage site; 6x His-tag; 3C protease cleavage site; made in house; host or cells: E. coli BL21 DE3 RIL(K+)", "T3 sequence (Q62296 210-427)": "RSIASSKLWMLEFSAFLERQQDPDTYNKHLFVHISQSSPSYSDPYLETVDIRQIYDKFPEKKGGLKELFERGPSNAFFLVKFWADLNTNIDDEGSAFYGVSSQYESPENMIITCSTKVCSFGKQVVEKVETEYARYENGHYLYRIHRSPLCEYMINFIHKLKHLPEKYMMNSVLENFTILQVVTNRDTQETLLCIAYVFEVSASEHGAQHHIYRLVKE", "assay": "SPR binding to immobilised mTEAD4", "conditions": "mTEAD4 amine-coupled on CM5, multi-cycle, steady-state fit 1:1 model, 10 mM HEPES 150 mM NaCl 0.05% Tween-20 pH 7.4, 0.3% DMSO, 20 °C, Fig. 1 values n = 1 replicate", "in_short": "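Proteins amine-coupled (NHS/EDC) to CM5 chips from 10 mM MES pH 6.4; running buffer 10 mM HEPES, 150 mM NaCl, 0.05% Tween-20, pH 7.4, 20 °C, 30 µL min^−1. Multi-cycle kinetics: seven threefold analyte dilutions from 30 µM, 45 s contact, 6-min dissociation, reference-surface subtracted.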"}, "rat heart cells": {"system": "rat heart cells", "assay": "Cell toxicity assessment on rat heart cells in culture", "conditions": "c(peptide) = 10 µM", "experimental": "whole heart cells monitored by fluorescence microscopy after 90 minutes treatments (scale bar: 25 µm), number of […]\n4E as well as control compounds (SB203580, CHIR99021) on rat heart cells in culture (c(peptide) = 10 µM). Number of independent biological replicates: n = 6, error bars = SEM. […]\ncytometry analysis of live cells after 90 min incubation at 5 µM: Representative histogram plot, (-) DMSO control). Source data are provided as a Source Data file.\n(1 picture or pasted object on this page, not shown here)"}, "[5]": {"conditions": "90 minutes, fractionation, UPLC-MS"}, "[6]": {"conditions": "24 hours, fractionation, UPLC-MS"}}, "note": "Bridge positions count the residues as written; N and C are the ends. Peptide text beside a SMILES is read from it."}
{"smiles": "CC[C@H](C)[C@@H]1NC(=O)[C@H](CCC(N)=O)NC(=O)[C@H](CC(C)C)NC(=O)[C@H](Cc2c[nH]c3ccccc23)NC(=O)[C@H]([C@@H](C)O)NC(=O)[C@H](CC(=O)O)NC(=O)CNC(=O)[C@H](CC(C)C)NC(=O)[C@H](C)NC(=O)[C@H](CCCCN)NC(=O)[C@H](C)NC(=O)[C@H](Cc2ccccc2)NC(=O)[C@H](Cc2c[nH]cn2)NC(=O)[C@H](CC(=O)O)NC(=O)[C@@H](NC(=O)[C@@H](NC(=O)[C@H](CO)NC(C)=O)C(C)C)CCC(=O)NCCCC[C@@H](C(=O)N[C@@H](C)C(=O)N[C@@H](C)C(N)=O)NC1=O", "note": "[4E] (Ac-SVEDHFAKALGDTWLQIKAA-NH2; lactam 3-18)", "values": [{"measurement": "Effect on wound closure", "setting": "RKO cells [1]", "value": "no effect"}, {"measurement": "Effect on cardiomyocyte cell cycle activity", "setting": "[2]; P5–P6 rat heart cells, 4-days incubation, Ki67/αActinin double-positive cells", "value": "has no effect"}, {"measurement": "Cell cycle activity, MEAN", "setting": "[2]; c = 10 µM, 4 days, relative to DMSO-treated cells (100), mean of N = 6", "value": 92.7542}, {"measurement": "Sub-cellular drug content, Cytoplasm, Measured concentration", "setting": "RKO cells [3]; [5]", "value": "< LLOQ"}, {"measurement": "Sub-cellular drug content, Cytoplasm, nMol", "setting": "RKO cells [3]; [5]", "value": "< LLOQ"}, {"measurement": "Sub-cellular drug content, Nuclear, Measured concentration", "setting": "RKO cells [3]; [5]", "value": "< LLOQ"}, {"measurement": "Sub-cellular drug content, Nuclear, nMol", "setting": "RKO cells [3]; [5]", "value": "< LLOQ"}, {"measurement": "Sub-cellular drug content, Cytoplasm, pMol.mg-1", "setting": "RKO cells [3]; [5]", "value": "< LLOQ"}, {"measurement": "Sub-cellular drug content, Nuclear, pMol.mg-1", "setting": "RKO cells [3]; [5]", "value": "< LLOQ"}, {"measurement": "Sub-cellular drug content, Cytoplasm, Measured concentration", "setting": "RKO cells [3]; [6]", "value": "< LLOQ"}, {"measurement": "Sub-cellular drug content, Cytoplasm, nMol", "setting": "RKO cells [3]; [6]", "value": "< LLOQ"}, {"measurement": "Sub-cellular drug content, Nuclear, Measured concentration", "setting": "RKO cells [3]; [6]", "value": "< LLOQ"}, {"measurement": "Sub-cellular drug content, Nuclear, nMol", "setting": "RKO cells [3]; [6]", "value": "< LLOQ"}, {"measurement": "Sub-cellular drug content, Cytoplasm, pMol.mg-1", "setting": "RKO cells [3]; [6]", "value": "< LLOQ"}, {"measurement": "Sub-cellular drug content, Nuclear, pMol.mg-1", "setting": "RKO cells [3]; [6]", "value": "< LLOQ"}, {"measurement": "Cytoplasmic concentration of peptide", "setting": "RKO cells [3]; UPLC-MS, raw data replicate 1", "value": "<LLOQ"}, {"measurement": "Cytoplasmic concentration of peptide", "setting": "RKO cells [3]; UPLC-MS, raw data replicate 2", "value": "<LLOQ"}, {"measurement": "Nuclear concentration of peptide", "setting": "RKO cells [3]; UPLC-MS, raw data replicate 1", "value": "<LLOQ"}, {"measurement": "Nuclear concentration of peptide", "setting": "RKO cells [3]; UPLC-MS, raw data replicate 2", "value": "<LLOQ"}, {"measurement": "Cytoplasmic concentration, raw data", "setting": "RKO cells [3]; UPLC-MS, replicate 1", "value": "<LLOQ"}, {"measurement": "Nuclear concentration, raw data", "setting": "RKO cells [3]; UPLC-MS, replicate 1", "value": "<LLOQ"}, {"measurement": "Cytoplasmic concentration, raw data", "setting": "RKO cells [3]; UPLC-MS, replicate 2", "value": "<LLOQ"}, {"measurement": "Nuclear concentration, raw data", "setting": "RKO cells [3]; UPLC-MS, replicate 2", "value": "<LLOQ"}, {"measurement": "Detection in cytoplasmic and nuclear fractions", "setting": "RKO cells [3]; unlabelled peptide 25 µM, 90 min and 24 h, fractionation, UPLC-MS", "value": "not detected in subcellular fractions"}, {"measurement": "Intracellular concentration", "setting": "RKO cells [3]; unlabelled peptide 25 µM, 90 min incubation, n = 2 biological replicates", "value": "< LLOQ"}, {"measurement": "Intracellular concentration", "setting": "RKO cells [3]; unlabelled peptide 25 µM, 24 hours incubation, N = 2 biological replicates", "value": "< LLOQ"}, {"measurement": "Total drug content, Measured Concentration", "setting": "RKO cells [4]; 24 hours, RIPA total lysis, UPLC-MS, diluted lysate, n = 2", "value": "< LLOQ"}, {"measurement": "Total drug content, nMol", "setting": "RKO cells [4]; 24 hours, total lysis, UPLC-MS, n = 2", "value": "< LLOQ"}, {"measurement": "Total drug content, pMol.mg-1", "setting": "RKO cells [4]; 24 hours, total lysis, UPLC-MS, normalised to BCA protein, n = 2", "value": "< LLOQ"}, {"measurement": "pMol/mg of protein, Mean", "setting": "RKO cells [4]; total drug content, 90 minutes, mean of 2 replicates", "value": "424.4 pMol/mg of protein"}, {"measurement": "Kd", "setting": "GST-hTEAD1", "value": 700, "unit": "nM"}, {"measurement": "Competition with TEAD–VGL4 complex formation (pull-down)", "setting": "GST-hTEAD1 / biotin-VGL4", "value": "compete with TEAD–VGL4 complex formation"}, {"measurement": "Kd", "setting": "mTEAD4", "value": 1200, "unit": "nM"}, {"measurement": "Total cell number (% DMSO control)", "setting": "rat heart cells; raw data replicate 1", "value": 98.8636, "unit": "% DMSO control"}, {"measurement": "Total cell number (% DMSO control)", "setting": "rat heart cells; raw data replicate 2", "value": 123.588, "unit": "% DMSO control"}, {"measurement": "Total cell number (% DMSO control)", "setting": "rat heart cells; raw data replicate 3", "value": 109.739, "unit": "% DMSO control"}, {"measurement": "Total cell number (% DMSO control)", "setting": "rat heart cells; raw data replicate 4", "value": 95.1959, "unit": "% DMSO control"}, {"measurement": "Total cell number (% DMSO control)", "setting": "rat heart cells; raw data replicate 5", "value": 66.1379, "unit": "% DMSO control"}, {"measurement": "Total cell number (% DMSO control)", "setting": "rat heart cells; raw data replicate 6", "value": 63.0015, "unit": "% DMSO control"}]}
